Results reported in patent US9409952B2, “Peptide-compound cyclization method” (Chugai Seiyaku Kabushiki Kaisha, priority 2011, dated 2016).
Read-outs that look alike come from different tables or passages of the source. Starred links: 1 amine or outer side, 2 acyl side, 3 side chain; linkers in the order of their positions; H or OH if unused. Positions of bridges follow the written chain, without caps; N, C: chain ends. Non-standard residues stand in square brackets, D forms with d. Residues, ends and D or L forms follow the SMILES beside them. *: point of attachment. NMePhe(3-Cl) = CN[C@@H](Cc1cccc(Cl)c1)C(=O)O; NMeF = CN[C@@H](Cc1ccccc1)C(=O)O; NMeGABA = CN(CCCC(=O)[*:2])[*:1]; NMeI = CC[C@H](C)[C@H](NC)C(=O)O; NMeβAla = CN(CCC(=O)[*:2])[*:1]; NMeL = CN[C@@H](CC(C)C)C(=O)O; NMeV = CN[C@H](C(=O)O)C(C)C; NMeA = CN[C@@H](C)C(=O)O; Piperidide = C1CCN(*)CC1; dNMeA = CN[C@H](C)C(=O)O; β3hA = C[C@H](N)CC(=O)O; Sar = CNCC(=O)O; tBu = CC(C)(C)*

Key:
[1] = Metabolic stability in human hepatic microsome; format: in vitro ADME
[2] = PAMPA (parallel artificial membrane permeability assay); format: in vitro ADME; details: PAMPA
How it was run: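 Artificial membrane was 10% (w/v) egg lecithin plus 0.5% (w/v) cholesterol in dodecane on a PVDF filter. A 10 mM DMSO stock was added at 0.5% (v/v) to donor buffer (50 mM MOPSO, pH 6.5, 5.0% glycocholic acid). After 18 h at 37 °C, LC/MS or LC/UV gave donor and acceptor levels for Pe.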

[3] = microsomes, pH 7.4, human hepatic microsome, NADPH(+), read-out: CL NADPH(+)
[4] = membrane permeation rate (Pe), 50 mM MOPSO buffer pH 6.5 with 5.0% glycocholic acid, 37° C., 18 hours, read-out: iPAMPA Pe

CC(C)C[C@H]1C(=O)N(C)[C@@H](Cc2ccccc2)C(=O)N(C)[C@@H](CC(C)C)C(=O)N[C@@H]([C@@H](C)O)C(=O)N(C)CC(=O)N[C@@H](COC(C)(C)C)C(=O)N(C)[C@@H](CC(C)C)C(=O)N[C@H](C(=O)N2CCCCC2)CC(=O)N1C [DP-689] ([NMeL][NMeF][NMeL]T[Sar]S(tBu)[NMeL]D-Piperidide; lactam N-8)
microsomal CLint at 1 uM [1, 3]: 103 µL/min/mg
Papp at 18 hours, 50 µM [2, 4]: 44 ×10⁻⁶ cm/s

CC[C@H](C)[C@@H]1NC(=O)CN(C)C(=O)[C@H](Cc2ccccc2)N(C)C(=O)[C@H]([C@@H](C)O)NC(=O)[C@H](CC(C)C)N(C)C(=O)[C@H](C)N(C)C(=O)CCCN(C)C(=O)C[C@@H](C(=O)N(C)[C@@H](Cc2ccccc2)C(=O)N[C@@H](C)C(=O)N2CCCCC2)NC(=O)[C@H](C(C)C)N(C)C(=O)[C@H](CC(C)C)N(C)C1=O [DP-374] ([NMeGABA][NMeA][NMeL]T[NMeF][Sar]I[NMeL][NMeV]D[NMeF]A-Piperidide; lactam N-10)
microsomal CLint at 1 uM [1, 3]: 53 µL/min/mg
Papp at 18 hours, 50 µM [2, 4]: 24 ×10⁻⁶ cm/s

CC[C@H](C)[C@H]1C(=O)N[C@@H](CC(C)C)C(=O)N(C)[C@@H](C)C(=O)N(C)[C@@H](Cc2ccccc2)C(=O)NCC(=O)N[C@@H]([C@@H](C)O)C(=O)N[C@@H](Cc2ccccc2)C(=O)N(C)[C@@H](CC(C)C)C(=O)N2CCC[C@H]2C(=O)N[C@H](C(=O)N2CCCCC2)CC(=O)N[C@H](C(C)C)C(=O)N[C@@H](CC(C)C)C(=O)N1C [DP-218] ([dV]L[NMeI]L[NMeA][NMeF]GTF[NMeL]PD-Piperidide; lactam N-12)
microsomal CLint at 1 uM ([1]; human, liver microsomes, pH 7.4, human hepatic microsome, NADPH(+), read-out: CL NADPH(+)): 18 µL/min/mg
Papp at 18 hours, 50 µM [2, 4]: 33 ×10⁻⁶ cm/s

CC[C@H](C)[C@@H]1NC(=O)[C@@H](C)N(C)C(=O)C[C@@H](C(=O)N2CCCCC2)NC(=O)[C@H](Cc2ccccc2)NC(=O)[C@H]([C@@H](C)O)NC(=O)[C@H](CC(C)C)NC(=O)[C@H](CC(C)C)NC(=O)CN(C)C(=O)[C@H](CC(C)C)NC(=O)[C@H](C)NC(=O)[C@H](CC(C)C)NC1=O [DP-327] ([dNMeA]ILAL[Sar]LLTFD-Piperidide; lactam N-11)
microsomal CLint at 1 uM [1, 3]: 70 µL/min/mg
Papp at 18 hours, 50 µM [2, 4]: 3.5 ×10⁻⁶ cm/s

CC[C@H](C)[C@@H]1NC(=O)[C@H](C)NC(=O)C[C@H](C)NC(=O)[C@H](CC(C)C)NC(=O)[C@H](CC(C)C)NC(=O)[C@H](C(C)C)NC(=O)[C@H](C)N(C)C(=O)[C@H](CC(C)C)NC(=O)CNC(=O)[C@H]([C@@H](C)O)NC(=O)[C@H](CC(C)C)N(C)C(=O)[C@@H]2CCCN2C1=O [DP-808] (cyclo(AIP[NMeL]TGL[NMeA]VLL[β3hA]))
microsomal CLint at 1 uM ([1]; human, microsomes, pH 7.4, CL NADPH(+)): 33 µL/min/mg
Papp at 18 hours, 50 µM ([2]; pH 6.5): 3.3 ×10⁻⁶ cm/s

CC[C@H](C)[C@H](NC(=O)CN(C)C(=O)[C@H](Cc1ccccc1)N(C)C(=O)[C@H](CC(C)C)N(C)C(=O)[C@@H](NC(=O)[C@@H]1CC(=O)N(C)[C@@H](C)C(=O)N[C@@H](CC(C)C)C(=O)N(C)[C@@H](CC(C)C)C(=O)N(C)[C@@H](C)C(=O)N(C)[C@@H](Cc2cccc(Cl)c2)C(=O)N[C@@H]([C@@H](C)O)C(=O)N1)C(C)C)C(=O)N1CCCCC1 [DP-912] ([NMeA]L[NMeL][NMeA][NMePhe(3-Cl)]TDV[NMeL][NMeF][Sar]I-Piperidide; lactam N-7)
microsomal CLint at 1 uM [1, 3]: 8 µL/min/mg
Papp at 18 hours, 50 µM [2, 4]: 1.3 ×10⁻⁶ cm/s

CC(C)C[C@@H]1NC(=O)C[C@@H](C(=O)N2CCCCC2)NC(=O)[C@H](COC(C)(C)C)NC(=O)[C@H]([C@@H](C)O)NC(=O)[C@H](Cc2ccccc2)N(C)C(=O)[C@H](CC(C)C)N(C)C(=O)CN(C)C1=O [DP-718] (L[Sar][NMeL][NMeF]TS(tBu)D-Piperidide; lactam N-7)
microsomal CLint at 1 uM [1, 3]: 99 µL/min/mg
Papp at 18 hours, 50 µM [2, 4]: 17 ×10⁻⁶ cm/s

CC[C@H](C)[C@@H]1NC(=O)[C@H](Cc2ccccc2)NC(=O)[C@H](Cc2ccccc2)N(C)C(=O)CCN(C)C(=O)C[C@@H](C(=O)N2CCCCC2)NC(=O)[C@H](C)NC(=O)[C@H](CC(C)C)N(C)C(=O)[C@H](CC(C)C)N(C)C(=O)CN(C)C(=O)[C@H]([C@@H](C)O)NC(=O)[C@H](C(C)C)N(C)C(=O)[C@@H]2CCCN2C1=O [DP-134] ([NMeβAla][NMeF]FIP[NMeV]T[Sar][NMeL][NMeL]AD-Piperidide; lactam N-12)
microsomal CLint at 1 uM [1, 3]: 18 µL/min/mg
Papp at 18 hours, 50 µM [2, 4]: 13 ×10⁻⁶ cm/s
